Data reported in patent publication US20240116892A1, “HETEROCYCLIC AMIDE AND UREA COMPOUNDS AS JAK2 INHIBITORS” (Ajax Therapeutics, Inc., priority 2022, published 2024).
pKd: −log10 of the molar value.

Target: JAK2 (JH1 domain-catalytic, Y1007F, Y1008F) kinase (Homo sapiens (Human), UniProt O60674, Y1007F/Y1008F)
Assay: JAK2 JH1 Domain Binding Assay
Conditions: qPCR readout
Summary of the method: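 Competitive binding format: test compound, DNA-tagged JAK2 JH1 (Y1007F/Y1008F; HEK293-expressed NFkB fusion) and ligand-coated magnetic beads incubated 1 h at room temperature. Kinase retained on beads released with 0.5 μmol/L non-biotinylated ligand, then measured by qPCR.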

Chain of JAK2 (JH1 domain-catalytic, Y1007F, Y1008F) kinase (O60674 849-1124 Y1007F/Y1008F): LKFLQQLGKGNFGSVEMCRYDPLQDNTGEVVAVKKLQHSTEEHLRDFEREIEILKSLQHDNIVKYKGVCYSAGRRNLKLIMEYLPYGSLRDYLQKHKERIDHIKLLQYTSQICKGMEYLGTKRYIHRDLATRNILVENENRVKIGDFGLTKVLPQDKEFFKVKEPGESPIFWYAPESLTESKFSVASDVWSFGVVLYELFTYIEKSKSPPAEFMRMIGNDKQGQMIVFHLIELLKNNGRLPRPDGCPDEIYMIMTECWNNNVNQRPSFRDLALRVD

`COc1n[nH]c2ncc(N3CCC(N(C)C(=O)Nc4cc(C5CC5)cn([C@H]5CCCOC5)c4=O)CC3)cc12` [Example I-136-a, (S)-3-(5-cyclopropyl-2-oxo-1-(tetrahydro-2H-pyran-3-yl)-1,2-dihydropyridin-3-yl)-1-(1-(3-methoxy-1H-pyrazolo[3,4-b]pyridin-5-yl)piperidin-4-yl)-1-methylurea] and `COc1n[nH]c2ncc(N3CCC(N(C)C(=O)Nc4cc(C5CC5)cn([C@@H]5CCCOC5)c4=O)CC3)cc12` [Example I-136-b, (R)-3-(5-cyclopropyl-2-oxo-1-(tetrahydro-2H-pyran-3-yl)-1,2-dihydropyridin-3-yl)-1-(1-(3-methoxy-1H-pyrazolo[3,4-b]pyridin-5-yl)piperidin-4-yl)-1-methylurea] cannot be ordered by pKd: > 8.00 for the first, > 8.00 for the second.

Compared with `COc1cc(NC(=O)C2CC2)ncc1N1CCC(N(C)C(=O)Nc2cc(C(F)(F)F)cn(C)c2=O)CC1` [Example I-137, N-(4-methoxy-5-(4-(1-methyl-3-(1-methyl-2-oxo-5-(trifluoromethyl)-1,2-dihydropyridin-3-yl)ureido)piperidin-1-yl)pyridin-2-yl)cyclopropanecarboxamide], `Cn1cc(C(F)(F)F)cc(NC(=O)N2CCO[C@H]3CN(c4cnc(NC(=O)C5CC5)cn4)CC[C@@H]32)c1=O` [Example I-148-a, ((4aS,8aS)-6-(5-(cyclopropanecarboxamido)pyrazin-2-yl)-N-(1-methyl-2-oxo-5-(trifluoromethyl)-1,2-dihydropyridin-3-yl)octahydro-1H-pyrido[3,4-b][1,4]oxazine-1-carboxamide and (4aR,8aR)-6-(5-(cyclopropanecarboxamido)pyrazin-2-yl)-N-(1-methyl-2-oxo-5-(trifluoromethyl)-1,2-dihydropyridin-3-yl)octahydro-1H-pyrido[3,4-b][1,4]oxazine-1-carboxamide] is higher in pKd: 7.30 to 8.00 for the first, > 8.00 for the second. The second binds more tightly here.

`COc1n[nH]c2ncc(N3CCC(N(C)C(=O)Nc4cc(C(F)(F)F)ccn4)CC3)cc12` [Example I-138, 1-(1-(3-methoxy-1H-pyrazolo[3,4-b]pyridin-5-yl)piperidin-4-yl)-1-methyl-3-(4-(trifluoromethyl)pyridin-2-yl)urea] and `COc1n[nH]c2ncc(N3CCC(N(C)C(=O)Nc4cncc(C(F)(F)F)c4)CC3)cc12` [Example I-139, 1-(1-(3-methoxy-1H-pyrazolo[3,4-b]pyridin-5-yl)piperidin-4-yl)-1-methyl-3-(5-(trifluoromethyl)pyridin-3-yl)urea] cannot be ordered by pKd: > 8.00 for the first, > 8.00 for the second.

`CC(=O)Nc1cnc(C2=CC[C@@H](N(C)C(=O)Nc3cc(C(F)(F)F)cn(C)c3=O)CC2)cn1` [Example I-140-a, (S)—N-(5-(4-(1-methyl-3-(1-methyl-2-oxo-5-(trifluoromethyl)-1,2-dihydropyridin-3-yl)ureido)cyclohex-1-en-1-yl)pyrazin-2-yl)acetamide] and `CC(=O)Nc1cnc(C2=CC[C@H](N(C)C(=O)Nc3cc(C(F)(F)F)cn(C)c3=O)CC2)cn1` [Example I-140-b, (R)—N-(5-(4-(1-methyl-3-(1-methyl-2-oxo-5-(trifluoromethyl)-1,2-dihydropyridin-3-yl)ureido)cyclohex-1-en-1-yl)pyrazin-2-yl)acetamide] cannot be ordered by pKd: > 8.00 for the first, > 8.00 for the second.

Compared with `Cn1cc(C(F)(F)F)cc(NC(=O)N(C)[C@H]2CC[C@@H](c3cnc4[nH]cc(N5CCOCC5)c4n3)CC2)c1=O` [Example I-142, cis-1-methyl-3-(1-methyl-2-oxo-5-(trifluoromethyl)-1,2-dihydropyridin-3-yl)-1-(4-(7-morpholino-5H-pyrrolo[2,3-b]pyrazin-2-yl)cyclohexyl)urea], `CNc1c[nH]c2ncc([C@H]3CC[C@H](N(C)C(=O)Nc4cc(C(F)(F)F)cn(C)c4=O)CC3)nc12` [Example I-144, trans-1-methyl-3-(1-methyl-2-oxo-5-(trifluoromethyl)-1,2-dihydropyridin-3-yl)-1-(4-(7-(methylamino)-5H-pyrrolo[2,3-b]pyrazin-2-yl)cyclohexyl)urea] is higher in pKd: 6.00 to 7.30 for the first, > 8.00 for the second. The second binds more tightly here.

First: CNc1c[nH]c2ncc([C@H]3CC[C@@H](N(C)C(=O)Nc4cc(C(F)(F)F)cn(C)c4=O)CC3)nc12 [Example I-145, 1-methyl-3-(1-methyl-2-oxo-5-(trifluoromethyl)-1,2-dihydropyridin-3-yl)-1-((1s,4s)-4-(7-(methylamino)-5H-pyrrolo[2,3-b]pyrazin-2-yl)cyclohexyl)urea]
Second: COc1c[nH]c2ncc(N3CC[C@H](N(C)C(=O)Nc4cc(C(F)(F)F)cn(C)c4=O)C[C@@H]3C)nc12 [Example I-161-a, 1-((2S,4S)-1-(7-methoxy-5H-pyrrolo[2,3-b]pyrazin-2-yl)-2-methylpiperidin-4-yl)-1-methyl-3-(1-methyl-2-oxo-5-(trifluoromethyl)-1,2-dihydropyridin-3-yl)urea]
The pKd of the first is higher: > 8.00 for the first, 6.00 to 7.30 for the second.

`COc1c[nH]c2ncc(N3CC[C@H](N(C)C(=O)Nc4cc(C(F)(F)F)cn(C)c4=O)[C@@H](F)C3)nc12` [Example I-149, 1-((3S,4S)-3-fluoro-1-(7-methoxy-5H-pyrrolo[2,3-b]pyrazin-2-yl)piperidin-4-yl)-1-methyl-3-(1-methyl-2-oxo-5-(trifluoromethyl)-1,2-dihydropyridin-3-yl)urea] and `COc1c[nH]c2ncc(N3CC[C@@H](N(C)C(=O)Nc4cc(C(F)(F)F)cn(C)c4=O)[C@H](F)C3)nc12` [Example I-150, 1-((3R,4R)-3-fluoro-1-(7-methoxy-5H-pyrrolo[2,3-b]pyrazin-2-yl)piperidin-4-yl)-1-methyl-3-(1-methyl-2-oxo-5-(trifluoromethyl)-1,2-dihydropyridin-3-yl)urea] cannot be ordered by pKd: > 8.00 for the first, > 8.00 for the second.

`COc1c[nH]c2ncc(N3CC[C@H](N(C)C(=O)Nc4cc(C(F)(F)F)cn(C)c4=O)[C@H](F)C3)nc12` [Example I-151, 1-((3R,4S)-3-fluoro-1-(7-methoxy-5H-pyrrolo[2,3-b]pyrazin-2-yl)piperidin-4-yl)-1-methyl-3-(1-methyl-2-oxo-5-(trifluoromethyl)-1,2-dihydropyridin-3-yl)urea] and `COc1c[nH]c2ncc(N3CC[C@@H](N(C)C(=O)Nc4cc(C(F)(F)F)cn(C)c4=O)[C@@H](F)C3)nc12` [Example I-152, 1-((3S,4R)-3-fluoro-1-(7-methoxy-5H-pyrrolo[2,3-b]pyrazin-2-yl)piperidin-4-yl)-1-methyl-3-(1-methyl-2-oxo-5-(trifluoromethyl)-1,2-dihydropyridin-3-yl)urea] cannot be ordered by pKd: > 8.00 for the first, > 8.00 for the second.

Compared with `[2H]C1([2H])C[C@@H](N(C)C(=O)Nc2cc(C(F)(F)F)cn(C)c2=O)[C@H](OC)C([2H])([2H])N1c1cnc2[nH]ncc2c1` [Example I-153-a, 1-((3R,4R)-3-methoxy-1-(1H-pyrazolo[3,4-b]pyridin-5-yl)piperidin-4-yl-2,2,6,6-d4)-1-methyl-3-(1-methyl-2-oxo-5-(trifluoromethyl)-1,2-dihydropyridin-3-yl)urea], `[2H]C1([2H])C[C@H](N(C)C(=O)Nc2cc(C(F)(F)F)cn(C)c2=O)[C@@H](OC)C([2H])([2H])N1c1cnc2[nH]ncc2c1` [Example I-153-b, 1-((3S,4S)-3-methoxy-1-(1H-pyrazolo[3,4-b]pyridin-5-yl)piperidin-4-yl-2,2,6,6-d4)-1-methyl-3-(1-methyl-2-oxo-5-(trifluoromethyl)-1,2-dihydropyridin-3-yl)urea] is lower in pKd: > 8.00 for the first, 7.30 to 8.00 for the second. The first binds more tightly here.

`COc1n[nH]c2ncc(C34CC(N(C)C(=O)Nc5cc(C(F)(F)F)cn(C)c5=O)(C3)C4)cc12` [Example I-156, 1-(3-(3-methoxy-1H-pyrazolo[3,4-b]pyridin-5-yl)bicyclo[1.1.1]pentan-1-yl)-1-methyl-3-(1-methyl-2-oxo-5-(trifluoromethyl)-1,2-dihydropyridin-3-yl)urea] and `COCCOc1n[nH]c2ncc(C34CC(N(C)C(=O)Nc5cc(C(F)(F)F)cn(C)c5=O)(C3)C4)cc12` [Example I-157, 1-(3-(3-(2-methoxyethoxy)-1H-pyrazolo[3,4-b]pyridin-5-yl)bicyclo[1.1.1]pentan-1-yl)-1-methyl-3-(1-methyl-2-oxo-5-(trifluoromethyl)-1,2-dihydropyridin-3-yl)urea] cannot be ordered by pKd: > 8.00 for the first, > 8.00 for the second.

`CN(C(=O)Nc1cc(C(F)(F)F)cn(C)c1=O)C12CC(c3cnc4[nH]nc(OC[C@H]5COCCO5)c4c3)(C1)C2` [Example I-158, (R)-1-(3-(3-((1,4-dioxan-2-yl)methoxy)-1H-pyrazolo[3,4-b]pyridin-5-yl)bicyclo[1.1.1]pentan-1-yl)-1-methyl-3-(1-methyl-2-oxo-5-(trifluoromethyl)-1,2-dihydropyridin-3-yl)urea] and `COCCOc1n[nH]c2ncc(N3CC[C@H]4[C@H](C3)OCCN4C(=O)Nc3cc(C(F)(F)F)cn(C)c3=O)cc12` [Example I-162-a, (4aS,8aS)-6-(3-(2-methoxyethoxy)-1H-pyrazolo[3,4-b]pyridin-5-yl)-N-(1-methyl-2-oxo-5-(trifluoromethyl)-1,2-dihydropyridin-3-yl)octahydro-1H-pyrido[3,4-b][1,4]oxazine-1-carboxamide] cannot be ordered by pKd: > 8.00 for the first, > 8.00 for the second.

`COCc1cc2nc(N3CC[C@H](N(C)C(=O)Nc4cc(C(F)(F)F)cn(C)c4=O)[C@H](C)C3)cnc2[nH]1` [Example I-159-a, 1-((3R,4S)-1-(6-(methoxymethyl)-5H-pyrrolo[2,3-b]pyrazin-2-yl)-3-methylpiperidin-4-yl)-1-methyl-3-(1-methyl-2-oxo-5-(trifluoromethyl)-1,2-dihydropyridin-3-yl)urea] and `COCc1cc2nc(N3CC[C@@H](N(C)C(=O)Nc4cc(C(F)(F)F)cn(C)c4=O)[C@@H](C)C3)cnc2[nH]1` [Example I-159-b, 1-((3S,4R)-1-(6-(methoxymethyl)-5H-pyrrolo[2,3-b]pyrazin-2-yl)-3-methylpiperidin-4-yl)-1-methyl-3-(1-methyl-2-oxo-5-(trifluoromethyl)-1,2-dihydropyridin-3-yl)urea] cannot be ordered by pKd: > 8.00 for the first, > 8.00 for the second.

Work on `COc1c[nH]c2ncc(N3CC[C@@H](N(C)C(=O)Nc4cc(C(F)(F)F)cn(C)c4=O)C[C@H]3C)nc12` [Example I-161-b, 1-((2R,4R)-1-(7-methoxy-5H-pyrrolo[2,3-b]pyrazin-2-yl)-2-methylpiperidin-4-yl)-1-methyl-3-(1-methyl-2-oxo-5-(trifluoromethyl)-1,2-dihydropyridin-3-yl)urea] yielded a pKd of 7.30 to 8.00.
